# Assay results published in patent US11414431B2, “Substituted pyrazolo[1,5-a]pyrimidines as TYK2 inhibitors” (Nimbus Lakshmi, Inc., priority 2018, dated 2022).
# Experiments:
# JAK2 = JAK2 (Homo sapiens (Human), UniProt O60674); test: JAK2 Radioactive Kinase Assay; assay type: biochemical; details: compound at 10 μM; substrate poly[Glu:Tyr] (4:1)
# Description: Peptide substrate, [[…]], (20 μM) was prepared in reaction buffer (20 mM Hepes pH 7.5, 10 mM MgCl2, 1 mM EGTA, 0.02% Brij35, 0.02 mg/mL BSA, 0.1 mM […], 2 mM DTT, 1% DMSO. TYK2 (Invitrogen) kinase was added, followed by compounds in DMSO. 33PATP was added to initiate the reaction in ATP at […]. Kinase reaction was incubated for 120 min at room temp and reactions were spotted onto P^81 ion exchange paper (Whatman #3698-915), and then washed extensively in 0.75% phosphoric acid, prior to reading the radioactivity counts. For JAK2 (Invitrogen) kinase assay the peptide substrate poly[Glu:Tyr] (4:1), 0.2 mg/mL was used, in the reaction carried out the same as for TYK2.
# [1] = target: human TYK2 (JH2domain-pseudokinase) (Homo sapiens (Human), UniProt P29597); test: TYK2 JH2 Domain Binding Assay (KINOMEscan); details: 11-point 3-fold dilution, top concentration 30,000 nM, duplicate; read-out: hTYK2_JH2_Binding (Kd; nM)
# In short: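 KINOMEscan competition binding: HEK293-expressed NFkB-fused TYK2 JH2 (G556–D888), DNA-tagged, against immobilized ligand beads, 1 h shaking at room temperature, 0.9% DMSO. Bound kinase quantified by qPCR.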
# [2] = system: IL-12 induced STAT4 phosphorlyation mediated by TYK2/JAK2; test: IL-12 Induced pSTAT4 in Human PBMC; assay type: cell-based; details: 1.7 ng/mL IL-12 for 30 minutes
# In short: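 pSTAT4 and total STAT4 quantified by MSD in lysates of cryopreserved human PBMC after 30-minute stimulation with 1.7 ng/mL IL-12 (final). Compound was added 1 hr beforehand at 37° C, 0.1% DMSO final.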
# Chain of human TYK2 (JH2domain-pseudokinase) (P29597 556-888): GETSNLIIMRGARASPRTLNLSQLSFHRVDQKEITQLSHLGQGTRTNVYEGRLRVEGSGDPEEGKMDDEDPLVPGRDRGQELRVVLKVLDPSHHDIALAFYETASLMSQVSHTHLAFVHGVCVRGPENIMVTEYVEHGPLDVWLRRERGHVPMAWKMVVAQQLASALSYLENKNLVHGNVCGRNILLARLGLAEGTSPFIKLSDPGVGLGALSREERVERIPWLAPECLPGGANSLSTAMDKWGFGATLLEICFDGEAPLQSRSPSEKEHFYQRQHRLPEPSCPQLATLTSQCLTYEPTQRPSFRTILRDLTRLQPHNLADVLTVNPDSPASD
# Chain of JAK2 (O60674 whole entry): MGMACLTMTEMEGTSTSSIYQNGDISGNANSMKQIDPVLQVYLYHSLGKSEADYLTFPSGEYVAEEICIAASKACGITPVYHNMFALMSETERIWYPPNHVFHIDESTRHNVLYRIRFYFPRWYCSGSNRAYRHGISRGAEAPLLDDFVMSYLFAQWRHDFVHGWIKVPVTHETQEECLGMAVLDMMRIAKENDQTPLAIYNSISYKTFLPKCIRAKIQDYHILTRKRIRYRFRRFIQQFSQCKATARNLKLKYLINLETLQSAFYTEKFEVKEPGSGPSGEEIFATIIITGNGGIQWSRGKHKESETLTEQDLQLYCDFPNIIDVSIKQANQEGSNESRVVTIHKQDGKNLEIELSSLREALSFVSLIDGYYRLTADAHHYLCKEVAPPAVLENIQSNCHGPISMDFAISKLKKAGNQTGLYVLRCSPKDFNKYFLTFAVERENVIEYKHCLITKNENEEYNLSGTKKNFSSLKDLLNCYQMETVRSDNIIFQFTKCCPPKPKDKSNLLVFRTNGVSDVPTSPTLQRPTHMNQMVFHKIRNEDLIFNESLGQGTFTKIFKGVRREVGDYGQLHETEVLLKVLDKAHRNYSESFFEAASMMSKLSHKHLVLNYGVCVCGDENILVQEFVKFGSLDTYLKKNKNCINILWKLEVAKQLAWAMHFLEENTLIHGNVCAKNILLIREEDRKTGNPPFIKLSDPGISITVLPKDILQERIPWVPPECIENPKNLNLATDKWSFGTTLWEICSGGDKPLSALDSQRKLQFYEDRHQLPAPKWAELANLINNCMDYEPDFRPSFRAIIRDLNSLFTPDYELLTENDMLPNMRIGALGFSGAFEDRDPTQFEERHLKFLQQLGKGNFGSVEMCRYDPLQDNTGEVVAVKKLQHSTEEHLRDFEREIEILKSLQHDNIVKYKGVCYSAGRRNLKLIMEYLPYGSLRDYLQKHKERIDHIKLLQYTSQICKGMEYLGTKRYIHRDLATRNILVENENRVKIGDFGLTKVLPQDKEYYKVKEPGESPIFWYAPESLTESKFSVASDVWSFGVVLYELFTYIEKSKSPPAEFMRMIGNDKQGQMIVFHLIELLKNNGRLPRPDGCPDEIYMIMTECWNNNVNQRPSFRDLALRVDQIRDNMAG
Compound,Kd [1] [nM],IC50 [2] [µM],IC50 ([2]; 0.5 h) [µM],JAK2 (% Inhibition at 10 μM) (JAK2)
"CNc1cc(Nc2cccn([C@H]3CC[C@H](OC)CC3)c2=O)nc2c(C(=O)N[C@@H]3CC[C@@H](OC)C3)cnn12 [Compound I-69, 5-((1-((1r,4R)-4-Methoxycyclohexyl)-2-oxo-1,2-dihydropyridin-3-yl)amino)-N-((1R,3R)-3-methoxycyclopentyl)-7-(methylamino)pyrazolo[1,5-a]pyrimidine-3-carboxamide]",–,–,–,A (percent inhibition at 10 μM lower than 50)
"CNc1cc(Nc2cccn([C@H]3CC[C@H](OC)CC3)c2=O)nc2c(C(=O)N[C@H]3CC[C@H](OC)C3)cnn12 [Compound I-70, 5-((1-((1 r,4S)-4-Methoxycyclohexyl)-2-oxo-1,2-dihydropyridin-3-yl)amino)-N-((1S,3S)-3-methoxycyclopentyl)-7-(methylamino)pyrazolo[1,5-a]pyrimidine-3-carboxamide]",–,–,–,A (percent inhibition at 10 μM lower than 50)
CO[C@@H]1CC[C@H]1NC(=O)c1cnn2c(N)cc(Nc3cccn(-c4ccccn4)c3=O)nc12 [Compound I-247],> 10,0.1 to 0.5,–,–
CNc1cc(Nc2cccn([C@H]3[C@@H]4COC[C@@H]43)c2=O)nc2c(C(=O)N[C@H]3CCC3(F)F)cnn12 [Compound I-307],< 0.2,< 0.1,–,–
CNc1cc(Nc2cccn(C(C)C)c2=O)nc2c(C(=O)N[C@@H]3CC[C@@]3(C)O)cnn12 [Compound I-341],< 0.2,< 0.1,–,–
CNc1ccc(-c2cc(NC)n3ncc(C(=O)N[C@@H]4C[C@@H]4F)c3n2)n2ccnc12 [Compound I-479],< 0.2,< 0.1,–,–
CNc1ccc(-c2cc(NC)n3ncc(C(=O)NC4CC[C@@H]4OC)c3n2)n2ccnc12 (stereo partly drawn) [Compound I-488],< 0.2,< 0.1,–,–
CNc1ccc(-c2cc(NC)n3ncc(C(=O)N[C@@H]4CC[C@H]4OC)c3n2)n2ccnc12 [Compound I-490],< 0.2,< 0.1,–,–
CNc1cc(-c2cn([C@H]3C[C@@H](O)C3)c3ncccc23)nc2c(C(=O)N[C@@H]3C[C@@H]3F)cnn12 [Compound I-500],< 0.2,0.1 to 0.5,–,–
CNc1cc(-c2cn([C@@H]3COC[C@H]3O)c3ncccc23)nc2c(C(=O)N[C@@H]3C[C@@H]3F)cnn12 [Compound I-502],< 0.2,0.1 to 0.5,–,–
CNc1cc(-c2cn(C3CN(C)C3)c3ncccc23)nc2c(C(=O)NC3CC[C@@H]3OC)cnn12 (stereo partly drawn) [Compound I-608],< 0.2,< 0.1,–,–
CC(C)n1cc(-c2nc3c(C(=O)NC4CC[C@H]4O)cnn3c3c2OCCN3)c2cccnc21 (stereo partly drawn) [Compound I-753],< 0.2,< 0.1,–,–
CC(C)n1cc(-c2nc3c(C(=O)N[C@H]4CC[C@H]4O)cnn3c3c2OCCN3)c2cccnc21 [Compound I-754],< 0.2,< 0.1,–,–
O=C(NC1CC[C@@H]1F)c1cnn2c3c(c(-c4cn([C@H]5C[C@H](O)C5)c5ncccc45)nc12)OCCN3 (stereo partly drawn) [Compound I-756],< 0.2,< 0.1,–,–
CC(C)n1cccc(Nc2nc3c(C(=O)N[C@H]4CCC4(F)F)cnn3c3c2OCCN3)c1=O [Compound I-766],< 0.2,< 0.1,–,–
"O=C(NC1CCC1(F)F)c1cnn2c3c(c(-c4cn(C5COC5)c5ncccc45)nc12)OCCN3 (stereo not drawn) [Compound I-771, N-(2,2-Difluorocyclobutyl)-5-(1-(oxetan-3-yl)-1H-pyrrolo[2,3-b]pyridin-3-yl)-2,3-dihydro-1H-pyrazolo[5′,1′:2,3]pyrimido[5,4-b][1,4]oxazine-7-carboxamide]",< 0.2,–,< 0.1,–
O=C(N[C@@H]1CCC1(F)F)c1cnn2c3c(c(-c4cn(C5COC5)c5ncccc45)nc12)OCCN3 [Compound I-772],< 0.2,< 0.1,–,–
O=C(NC1CC[C@@H]1F)c1cnn2c3c(c(-c4cn(C5COC5)c5ncccc45)nc12)OCCN3 (stereo partly drawn) [Compound I-774],< 0.2,< 0.1,–,–
CNc1cc(-c2cnc3n([C@H]4COC[C@@H]4O)cccc2-3)nc2c(C(=O)NC3CC3)cnn12 [Compound I-816],< 0.2,< 0.1,–,–
"CNc1cc(-c2cnc3n([C@@H]4CCOC[C@H]4O)cccc2-3)nc2c(C(=O)NC3CC3)cnn12 [Compound I-818, N-Cyclopropyl-5-(7-((3S,4R)-3-hydroxytetrahydro-2H-pyran-4-yl)-7H-pyrrolo[2,3-b]pyridin-3-yl)-7-(methylamino)pyrazolo[1,5-a]pyrimidine-3-carboxamide]",< 0.2,–,< 0.1,–
CNc1cc(-c2cnc3n([C@H]4CCOC[C@@H]4O)cccc2-3)nc2c(C(=O)NC3CC3)cnn12 [Compound I-819],< 0.2,< 0.1,–,–
CNc1cc(-c2cnc3n([C@H]4COC[C@@H]4O)cccc2-3)nc2c(C(=O)N[C@@H]3C[C@@H]3F)cnn12 [Compound I-820],< 0.2,< 0.1,–,–
CNc1cc(-c2cnc3n([C@@H]4CCOC[C@H]4O)cccc2-3)nc2c(C(=O)N[C@@H]3C[C@@H]3F)cnn12 [Compound I-824],< 0.2,< 0.1,–,–
CNc1cc(-c2cn([C@H]3C[C@@H](COC)C3)c3ncccc23)nc2c(C(=O)N[C@H]3CC[C@@H]3OC)cnn12 [Compound I-933],< 0.2,< 0.1,–,–
CNc1cc(-c2cn([C@H]3[C@@H]4COC[C@@H]43)c3ncccc23)nc2c(C(=O)N[C@@H]3CC[C@H]3O)cnn12 [Compound I-960],< 0.2,0.1 to 0.5,–,–
CNc1cc(-c2cnc3n(CC(=O)N4CCOCC4)cccc2-3)nc2c(C(=O)NC3CC[C@@H]3OC)cnn12 (stereo partly drawn) [Compound I-962],< 0.2,0.5 to 1,–,–
CNc1cc(-c2cnc3n(CC(=O)N4CC5(COC5)C4)cccc2-3)nc2c(C(=O)N[C@H]3CC[C@@H]3OC)cnn12 [Compound I-1012],< 0.2,> 1,–,–
CNc1cc(-c2cnc3n(C4CCOCC4)cccc2-3)nc2c(C(=O)N[C@@H]3CC[C@H]3OC)cnn12 [Compound I-1015],< 0.2,0.5 to 1,–,–
"N-((cis-1,2)-2-Hydroxycyclobutyl)-5-(1-((1s,3R)-3-hydroxycyclobutyl)-1H-pyrrolo[2,3-b]pyridin-3-yl)-7-(methylamino)pyrazolo[1,5-a]pyrimidine-3-carboxamide [Compound I-111]",< 0.2,0.1 to 0.5,–,–

# More lines, main results first:
Kd [1] [nM],IC50 [2] [µM],IC50 ([2]; 0.5 h) [µM],Compound,JAK2 (% Inhibition at 10 μM) (JAK2)
< 0.2,< 0.1,–,CNc1cc(-c2cn([C@H]3C[C@@H](O)C3)c3ncccc23)nc2c(C(=O)NC3CC3)cnn12 [Compound I-495],–
< 0.2,< 0.1,–,CNc1cc(-c2cn(C3COC3)c3ncccc23)nc2c(C(=O)NC3CC[C@@H]3F)cnn12 (stereo partly drawn) [Compound I-507],–
< 0.2,< 0.1,–,CNc1cc(-c2cn(C3COC3)c3ncccc23)nc2c(C(=O)N[C@H]3CC[C@@H]3F)cnn12 [Compound I-508],–
< 0.2,< 0.1,–,O=C(N[C@@H]1C[C@@H]1F)c1cnn2c3c(c(Nc4cccc5ocnc45)nc12)OCCN3 [Compound I-752],–
< 0.2,< 0.1,–,O=C(N[C@H]1CC[C@@H]1F)c1cnn2c3c(c(-c4cn([C@H]5C[C@H](O)C5)c5ncccc45)nc12)OCCN3 [Compound I-757],–
< 0.2,< 0.1,–,CO[C@@H]1CCC1NC(=O)c1cnn2c3c(c(Nc4cccn([C@H]5[C@@H]6COC[C@@H]65)c4=O)nc12)OCCN3 (stereo partly drawn) [Compound I-762],–
< 0.2,< 0.1,–,CC(C)n1cccc(Nc2nc3c(C(=O)NC4CCC4(F)F)cnn3c3c2OCCN3)c1=O (stereo not drawn) [Compound I-765],–
< 0.2,< 0.1,–,O=C(NC1CCC1(F)F)c1cnn2c3c(c(Nc4cccn([C@H]5[C@@H]6COC[C@@H]65)c4=O)nc12)OCCN3 (stereo partly drawn) [Compound I-768],–
< 0.2,< 0.1,–,O=C(N[C@@H]1CCC1(F)F)c1cnn2c3c(c(Nc4cccn([C@H]5[C@@H]6COC[C@@H]65)c4=O)nc12)OCCN3 [Compound I-769],–
< 0.2,< 0.1,–,CNc1cc(-c2cnc3n([C@@H]4COC[C@H]4O)cccc2-3)nc2c(C(=O)NC3CC3)cnn12 [Compound I-817],–
< 0.2,0.1 to 0.5,–,CNc1cc(-c2cnc3n([C@@H]4COC[C@H]4O)cccc2-3)nc2c(C(=O)N[C@@H]3C[C@@H]3F)cnn12 [Compound I-821],–
< 0.2,< 0.1,–,CNc1cc(-c2cnc3n([C@H]4CCOC[C@@H]4O)cccc2-3)nc2c(C(=O)N[C@@H]3C[C@@H]3F)cnn12 [Compound I-825],–
< 0.2,< 0.1,–,CNc1cc(-c2cnc3n(C4CCOCC4)cccc2-3)nc2c(C(=O)N[C@H]3CC[C@@H]3OC)cnn12 [Compound I-1014],–
< 0.2,–,< 0.1,"CNc1cc(-c2cnc3n(C4CCN(CCOC)CC4)cccc2-3)nc2c(C(=O)N[C@H]3CC[C@@H]3OC)cnn12 [Compound I-1020, N-((1S,2S)-2-methoxycyclobutyl)-5-(7-(1-(2-methoxyethyl)piperidin-4-yl)-7H-pyrrolo[2,3-b]pyridin-3-yl)-7-(methylamino)pyrazolo[1,5-a]pyrimidine-3-carboxamide]",–
